Patent US9266871B2, “Trifluoromethyl-substituted fused pyrimidines and their use” (BAYER PHARMA AKTIENGESELLSCHAFT, priority 2013, dated 2016)

Target: T1, bovine PDE 6 (Bos taurus, UniProt P11541+P23439)
T1 construct: from tissue; host or cells: bovine retina, photoreceptor outer segments (ROS)
T1 sequence (P11541 2-856 limits assumed): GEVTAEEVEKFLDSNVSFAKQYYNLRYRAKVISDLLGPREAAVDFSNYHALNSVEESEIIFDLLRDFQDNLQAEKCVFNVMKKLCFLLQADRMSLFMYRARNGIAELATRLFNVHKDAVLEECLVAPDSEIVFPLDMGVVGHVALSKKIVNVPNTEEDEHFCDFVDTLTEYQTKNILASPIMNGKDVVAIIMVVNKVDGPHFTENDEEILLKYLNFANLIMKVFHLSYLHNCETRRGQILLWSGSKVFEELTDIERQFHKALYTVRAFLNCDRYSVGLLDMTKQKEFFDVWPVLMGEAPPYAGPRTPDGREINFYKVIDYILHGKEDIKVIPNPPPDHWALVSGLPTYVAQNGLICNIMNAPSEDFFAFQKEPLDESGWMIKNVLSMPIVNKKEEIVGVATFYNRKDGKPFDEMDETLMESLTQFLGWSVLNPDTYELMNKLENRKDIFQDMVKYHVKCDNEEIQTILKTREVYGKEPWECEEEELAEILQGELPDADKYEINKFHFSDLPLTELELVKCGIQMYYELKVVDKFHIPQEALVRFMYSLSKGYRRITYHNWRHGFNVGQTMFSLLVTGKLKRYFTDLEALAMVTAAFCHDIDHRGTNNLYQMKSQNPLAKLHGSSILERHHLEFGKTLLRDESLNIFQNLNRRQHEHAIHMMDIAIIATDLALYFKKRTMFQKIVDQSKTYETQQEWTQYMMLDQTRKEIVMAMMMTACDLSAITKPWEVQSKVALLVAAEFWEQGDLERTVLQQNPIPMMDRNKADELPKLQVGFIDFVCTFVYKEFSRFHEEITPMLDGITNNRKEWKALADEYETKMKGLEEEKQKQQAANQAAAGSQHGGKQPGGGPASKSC
T1 sequence (P23439 2-850 limits assumed): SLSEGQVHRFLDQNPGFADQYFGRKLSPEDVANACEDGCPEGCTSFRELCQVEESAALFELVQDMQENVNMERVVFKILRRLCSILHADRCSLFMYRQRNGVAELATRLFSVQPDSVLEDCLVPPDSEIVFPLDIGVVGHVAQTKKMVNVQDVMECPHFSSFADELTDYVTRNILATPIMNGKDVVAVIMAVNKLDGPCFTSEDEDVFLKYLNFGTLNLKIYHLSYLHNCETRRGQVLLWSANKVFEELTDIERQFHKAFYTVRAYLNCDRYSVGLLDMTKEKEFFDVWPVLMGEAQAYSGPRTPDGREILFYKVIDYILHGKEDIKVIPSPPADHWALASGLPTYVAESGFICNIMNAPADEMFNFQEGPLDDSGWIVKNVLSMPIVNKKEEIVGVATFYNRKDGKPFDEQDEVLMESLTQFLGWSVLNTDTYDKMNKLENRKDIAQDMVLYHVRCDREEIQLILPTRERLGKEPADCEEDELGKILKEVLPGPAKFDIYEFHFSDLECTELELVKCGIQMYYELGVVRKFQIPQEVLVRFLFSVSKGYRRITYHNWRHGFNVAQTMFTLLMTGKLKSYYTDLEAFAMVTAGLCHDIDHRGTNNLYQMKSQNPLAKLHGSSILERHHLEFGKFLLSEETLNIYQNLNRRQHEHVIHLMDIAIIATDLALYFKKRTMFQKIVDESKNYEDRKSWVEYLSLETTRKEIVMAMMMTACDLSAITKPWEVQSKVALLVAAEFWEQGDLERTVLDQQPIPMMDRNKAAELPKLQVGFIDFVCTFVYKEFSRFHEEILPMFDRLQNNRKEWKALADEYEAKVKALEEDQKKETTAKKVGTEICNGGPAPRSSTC
Experiment: Inhibition of bovine phosphodiesterase 6 (PDE 6), 3H-cGMP SPA
Assay type: biochemical
Details: bovine PDE 6 inhibition
Protocol: B-6. Inhibition of Bovine Phosphodiesterase 6 (PDE 6)
PDE 6 is purified from external photoreceptor segments of bovine retina (ROS), activated by mild trypsination and purified further by ion exchange chromatography using a Mono Q column. Fractions having PDE 6 activity are combined (PDE 6 preparation) and stored at −80° (I. Saenz de Tejada et al., International Journal of Impotence Research 2001, 13, 282-290). The in vitro effect of test substances on bovine PDE 6 is determined using the commercially available 3H-cGMP Scintillation Proximity Assay (SPA) from Perkin Elmer. The reaction ([…], 37° C.) comprises serial dilution series of the test substances in DMSO and PDE 6 preparation (typical dilution 1:100,000), [8^−3H]guanosine 3′,5′-cyclic phosphate (0.25 μCi/mL; Perkin Elmer) and unlabelled cGMP (10 μM) in assay buffer (50 mM Tris/HCl pH 7.5; 140 mM NaCl; 8.3 mM MgCl2; 1.7 mM EDTA; 0.02% BSA). IC50 values are determined by plotting the substance concentration against the percent PDE 6 inhibition determined (Wunder et al. Molecular Pharmacology 2005, 68, 1775-1781).

Row | Structure (SMILES) | IC50 [nM]
1 | C[C@@]1(C(F)(F)F)C(=O)Nc2nc(-c3nn(Cc4ncccc4F)c4ncc(F)cc34)nc(NCCC(F)(F)F)c21 (single isomer, unassigned) [Example 1-1] | 220
2 | C[C@]1(C(F)(F)F)C(=O)Nc2nc(-c3nn(Cc4ncccc4F)c4ncc(F)cc34)nc(NCCC(F)(F)F)c21 (single isomer, unassigned) [Example 1-2] | 1400
